Experimental data: patent publication USRE47302E1 (ONYX THERAPEUTICS INC., priority 2013, dated 2019)
In brackets after ≈: the same amount, converted by molar mass. Where two headings read alike, the source gives them in different places.

What was measured:
Solubility pH 7 = conditions: for solubility: pH 7, aqueous buffer
[1] = molecular target: T1, proteasome subunit β5 (beta5) (Homo sapiens, UniProt P28074); assay: Proteasome active-site ELISA (ProCISE), beta5, MOLT-4 lysate; assay type: biochemical
T1 construct: Lysate from the human acute lymphoblastic leukemia cell line, MOLT-4; endogenous in cells; host or cells: MOLT-4
Experimental: (§1) Test compounds were serially diluted in DMSO at 100× concentration, then diluted to 10× in aqueous hypotonic lysis buffer. Lysate from the human acute lymphoblastic leukemia cell line, MOLT-4, was treated for 1 hour at 25° C. with compound at a final 1× concentration. […] Following, lysate was denatured in guanidine hydrochloride, and subunits bound to probe were isolated with streptavidin-conjugated sepharose beads. Individual subunits (e.g., β5, LMP7, LMP2, MECL-1) were probed with subunit-specific primary antibodies, followed by HRP-conjugated secondary antibodies. A chemiluminescent substrate was used to generate signal associated with HRP binding, which was detected on a plate reader. Luminescent signal was normalized to protein content, then, percent activity calculated relative to DMSO-treated controls to generate IC50 curves.

[2] = molecular target: T2, immunoproteasome subunit LMP7 (Homo sapiens, UniProt P28062); assay: Proteasome active-site ELISA (ProCISE), LMP7, MOLT-4 lysate; assay type: biochemical
T2 construct: Lysate from the human acute lymphoblastic leukemia cell line, MOLT-4; endogenous in cells; host or cells: MOLT-4
Experimental: as §1

[3] = MOLT4 lysate, human, 1 h continuous treatment, 25° C.
[4] = MOLT4 lysate, 1 h continuous treatment, 25° C.

Row | SMILES | solubility (Solubility pH 7) | IC50 [1, 3] | IC50 [2, 4] | Solubility pH 7 (μg/mL) (Solubility pH 7; pH 7) | IC50 ([1]; read-out: ProCISE beta5 MOLT4 lysate Hu 1 h CONT: IC50, MOLT4 lysate, human, 1 h continuous treatment, 25° C.) | IC50 ([2]; read-out: ProCISE LMP7 MOLT4 lysate Hu 1 h CONT: IC50, 1 h continuous treatment, 25° C.) | IC50 [1]
1 | COc1ccc(C[C@H](NC(=O)[C@@H](C)NC(=O)[C@H]2CC[C@H](O)CC2)C(=O)N[C@@H](CC2=CCCC2)C(=O)[C@@]2(C)CO2)cc1O [Compound C-1065, (1r,4R)-N-((R)-1-(((S)-1-(((S)-3-(cyclopent-1-en-1-yl)-1-((R)-2-methyloxiran-2-yl)-1-oxopropan-2-yl)amino)-3-(3-hydroxy-4-methoxyphenyl)-1-oxopropan-2-yl)amino)-1-oxopropan-2-yl)-4-hydroxycyclohexanecarboxamide] | 2660 µg/mL (≈ 4.55 mM) | 1.48 µM | 0.0346 µM |  |  |  | 
2 | COc1ccc(C[C@H](NC(=O)[C@H](C)NC(=O)CN2CCOCC2)C(=O)N[C@@H](CC2CC=CC2)C(=O)[C@@]2(C)CO2)cc1 [Compound C-1066, (S)-N-((S)-3-(cyclopent-3-en-1-yl)-1-((R)-2-methyloxiran-2-yl)-1-oxopropan-2-yl)-3-(4-methoxyphenyl)-2-((S)-2-(2-morpholinoacetamido)propanamido)propanamide] | 3200 µg/mL (≈ 5.6 mM) | 0.335 µM | 0.0471 µM |  |  |  | 
3 | C[C@H](NC(=O)CN1CCOCC1)C(=O)N[C@@H](Cc1ccc2[nH]ncc2c1)C(=O)N[C@@H](CC1CCCC1)C(=O)[C@@]1(C)CO1 [Compound C-1070, (S)-N-((S)-3-cyclopentyl-1-((R)-2-methyloxiran-2-yl)-1-oxopropan-2-yl)-3-(1H-indazol-5-yl)-2-((S)-2-(2-morpholinoacetamido)propanamido)propanamide] | 2140 µg/mL (≈ 3.67 mM) | 1.81 µM | 0.209 µM |  |  |  | 
4 | COc1ccc(C[C@H](NC(=O)[C@H](C)NC(=O)CN2CCOCC2)C(=O)N[C@@H](CC2CCCC2)C(=O)[C@H]2CO2)cc1OC [Compound C-1071, (S)-N-((S)-3-cyclopentyl-1-((R)-oxiran-2-yl)-1-oxopropan-2-yl)-3-(3,4-dimethoxyphenyl)-2-((S)-2-(2-morpholinoacetamido)propanamido)propanamide] | 4300 µg/mL (≈ 7.3 mM) | 3.89 µM | 0.106 µM |  |  |  | 
5 | COc1ccc(C[C@H](NC(=O)[C@@H](C)NC(=O)[C@H]2CC[C@H](O)CC2)C(=O)N[C@@H](CC2CCCC2)C(=O)[C@@]2(C)CO2)cc1O [Compound C-1072, (1r,4R)-N-((R)-1-(((S)-1-(((S)-3-cyclopentyl-1-((R)-2-methyloxiran-2-yl)-1-oxopropan-2-yl)amino)-3-(3-hydroxy-4-methoxyphenyl)-1-oxopropan-2-yl)amino)-1-oxopropan-2-yl)-4-hydroxycyclohexanecarboxamide] |  |  |  | 4742.65 μg/mL | 3.39 µM | 0.0397 µM | 
6 | COc1ccc(C[C@H](NC(=O)[C@@H](C)NC(=O)[C@H]2CC[C@H](O)CC2)C(=O)N[C@@H](CC2CC=CC2)C(=O)[C@@]2(C)CO2)cc1 [Compound C-1074, (1r,4R)-N-((R)-1-(((S)-1-(((S)-3-(cyclopent-3-en-1-yl)-1-((R)-2-methyloxiran-2-yl)-1-oxopropan-2-yl)amino)-3-(4-methoxyphenyl)-1-oxopropan-2-yl)amino)-1-oxopropan-2-yl)-4-hydroxycyclohexanecarboxamide] | 1150 µg/mL (≈ 2.02 mM) |  | 0.0262 µM |  |  |  | 0.778 µM
7 | COc1ccc(C[C@H](NC(=O)[C@@H](C)NC(=O)[C@H]2CC[C@@H](O)C2)C(=O)N[C@@H](CC2CCCC2)C(=O)[C@@]2(C)CO2)cc1 [Compound C-1075, (1S,3R)-N-((R)-1-(((S)-1-(((S)-3-cyclopentyl-1-((R)-2-methyloxiran-2-yl)-1-oxopropan-2-yl)amino)-3-(4-methoxyphenyl)-1-oxopropan-2-yl)amino)-1-oxopropan-2-yl)-3-hydroxycyclopentanecarboxamide] | 1650 µg/mL (≈ 2.95 mM) | 0.788 µM | 0.0921 µM |  |  |  | 
8 | COc1ccc([C@@H](O)[C@H](NC(=O)[C@@H](C)NC(=O)[C@H]2CC[C@H](O)CC2)C(=O)N[C@@H](CC2CCCC2)C(=O)[C@@]2(C)CO2)cc1 [Compound C-1079, (1r,4R)-N-((R)-1-(((2S,3R)-1-(((S)-3-cyclopentyl-1-((R)-2-methyloxiran-2-yl)-1-oxopropan-2-yl)amino)-3-hydroxy-3-(4-methoxyphenyl)-1-oxopropan-2-yl)amino)-1-oxopropan-2-yl)-4-hydroxycyclohexanecarboxamide] | 2050 µg/mL (≈ 3.49 mM) | 2.23 µM | 0.0346 µM |  |  |  | 
9 | COc1ccc([C@@H](O)[C@H](NC(=O)[C@H](C)NC(=O)CN2CCOCC2)C(=O)N[C@@H](CC2=CCCCC2)C(=O)[C@@]2(C)CO2)cc1 [Compound C-1082, (2S,3R)-N-((S)-3-(cyclohex-1-en-1-yl)-1-((R)-2-methyloxiran-2-yl)-1-oxopropan-2-yl)-3-hydroxy-3-(4-methoxyphenyl)-2-((S)-2-(2-morpholinoacetamido)propanamido)propanamide] | 6130 µg/mL (≈ 10.2 mM) | 3.53 µM | 0.0866 µM |  |  |  | 
10 | COc1ccc([C@@H](O)[C@H](NC(=O)[C@H](C)NC(=O)CN2CCOCC2)C(=O)N[C@@H](CC2=CCCC2)C(=O)[C@@]2(C)CO2)cc1 [Compound C-1083, (2S,3R)-N-((S)-3-(cyclopent-1-en-1-yl)-1-((R)-2-methyloxiran-2-yl)-1-oxopropan-2-yl)-3-hydroxy-3-(4-methoxyphenyl)-2-((S)-2-(2-morpholinoacetamido)propanamido)propanamide] | 7070 µg/mL (≈ 12.1 mM) | 0.561 µM | 0.0403 µM |  |  |  | 
11 | COc1ccc(C[C@H](NC(=O)[C@H](C)NC(=O)CN2CCOCC2)C(=O)N[C@@H](CC2=CCCC2)C(=O)[C@@]2(C)CO2)cc1O [Compound C-1085, (S)-N-((S)-3-(cyclopent-1-en-1-yl)-1-((R)-2-methyloxiran-2-yl)-1-oxopropan-2-yl)-3-(3-hydroxy-4-methoxyphenyl)-2-((S)-2-(2-morpholinoacetamido)propanamido)propanamide] | 8190 µg/mL (≈ 14 mM) | 1.84 µM | 0.158 µM |  |  |  | 
12 | COc1ccc(C[C@H](NC(=O)[C@@H](C)NC(=O)[C@H]2CC[C@](C)(O)CC2)C(=O)N[C@@H](CC2=CCCC2)C(=O)[C@@]2(C)CO2)cc1 [Compound C-1087, (1r,4R)-N-((R)-1-(((S)-1-(((S)-3-(Cyclopent-1-en-1-yl)-1-((R)-2-methyloxiran-2-yl)-1-oxopropan-2-yl)amino)-3-(4-methoxyphenyl)-1-oxopropan-2-yl)amino)-1-oxopropan-2-yl)-4-hydroxy-4-methylcyclohexanecarboxamide] | 1130 µg/mL (≈ 1.93 mM) | 1.75 µM | 0.0599 µM |  |  |  | 
13 | COc1ccc(C[C@H](NC(=O)[C@@H](C)NC(=O)[C@H]2CC[C@@](C)(O)CC2)C(=O)N[C@@H](CC2=CCCC2)C(=O)[C@@]2(C)CO2)cc1 [Compound C-1088, (1s,4S)-N-((R)-1-(((S)-1-(((S)-3-(cyclopent-1-en-1-yl)-1-((R)-2-methyloxiran-2-yl)-1-oxopropan-2-yl)amino)-3-(4-methoxyphenyl)-1-oxopropan-2-yl)amino)-1-oxopropan-2-yl)-4-hydroxy-4-methylcyclohexanecarboxamide] | 1410 µg/mL (≈ 2.42 mM) | 2.25 µM | 0.132 µM |  |  |  | 
14 | COc1ccc(C[C@H](NC(=O)[C@@H](C)NC(=O)[C@H]2CC[C@H](O)CC2)C(=O)N[C@@H](CC2=CCCCC2)C(=O)[C@@]2(C)CO2)cc1 [Compound C-1089, (1r,4R)-N-((R)-1-(((S)-1-(((S)-3-(cyclohex-1-en-1-yl)-1-((R)-2-methyloxiran-2-yl)-1-oxopropan-2-yl)amino)-3-(4-methoxyphenyl)-1-oxopropan-2-yl)amino)-1-oxopropan-2-yl)-4-hydroxycyclohexanecarboxamide] | 985 µg/mL (≈ 1.69 mM) | 8.97 µM | 0.0576 µM |  |  |  | 
15 | COc1ccc(C[C@H](NC(=O)[C@@H](C)NC(=O)[C@H]2CC[C@H](O)CC2)C(=O)N[C@@H](CC2CCC2)C(=O)[C@@]2(C)CO2)cc1 [Compound C-1090, (1r,4R)-N-((R)-1-(((S)-1-(((S)-3-cyclobutyl-1-((R)-2-methyloxiran-2-yl)-1-oxopropan-2-yl)amino)-3-(4-methoxyphenyl)-1-oxopropan-2-yl)amino)-1-oxopropan-2-yl)-4-hydroxycyclohexanecarboxamide] | 979 µg/mL (≈ 1.76 mM) | 6.63 µM | 0.262 µM |  |  |  | 
16 | COc1ccc(C[C@H](NC(=O)[C@@H](CO)NC(=O)[C@H]2CC[C@H](O)CC2)C(=O)N[C@@H](CC2=CCCC2)C(=O)[C@@]2(C)CO2)cc1 [Compound C-1092, (1r,4R)-N-((R)-1-(((S)-1-(((S)-3-(cyclopent-1-en-1-yl)-1-((R)-2-methyloxiran-2-yl)-1-oxopropan-2-yl)amino)-3-(4-methoxyphenyl)-1-oxopropan-2-yl)amino)-3-hydroxy-1-oxopropan-2-yl)-4-hydroxycyclohexanecarboxamide] | 3070 µg/mL (≈ 5.24 mM) | 2.04 µM | 0.0293 µM |  |  |  | 
17 | C[C@@H](NC(=O)[C@H]1CC[C@H](O)CC1)C(=O)N[C@@H](Cc1ccc(S(C)(=O)=O)cc1)C(=O)N[C@@H](CC1=CCCC1)C(=O)[C@@]1(C)CO1 [Compound C-1096, (1r,4R)-N-((R)-1-(((S)-1-(((S)-3-(cyclopent-1-en-1-yl)-1-((R)-2-methyloxiran-2-yl)-1-oxopropan-2-yl)amino)-3-(4-(methylsulfonyl)phenyl)-1-oxopropan-2-yl)amino)-1-oxopropan-2-yl)-4-hydroxycyclohexanecarboxamide] | 917 µg/mL (≈ 1.48 mM) | 0.868 µM | 0.0252 µM |  |  |  | 
